Measurements from PubChem BioAssay AID210 (DTP/NCI, 2004).
Inconclusive results and toxic doses are left out.

Test system: CD2F1 mice, ip Colon 26 adenocarcinoma, median survival T/C
Assay: NCI In Vivo Anticancer Drug Screen. Data for tumor model Colon 26 Adenocarcinoma (intraperitoneal) in CD2F1 (CDF1) mice
Conditions: endpoint: median survival time, higher = longer survival
Procedure: The antitumor activity of compounds was measured in mice bearing transplantable tumors. Survival or tumor size were measured and the results are expressed as the measurement made in the treated group (T) divided by the measurement made in the vehicle treated control group (C). The tumor model used in this assay is Colon 26 Adenocarcinoma (intraperitoneal) in CD2F1 (CDF1) mice

[1] = dose: 2.5 mg/kg/injection, schedule: Q04DX003 (ip), vehicle: suspension in saline
[2] = dose: 5.0 mg/kg/injection, schedule: Q04DX003 (ip), vehicle: suspension in saline
[3] = dose: 10.0 mg/kg/injection, schedule: Q04DX003 (ip), vehicle: suspension in saline

C[C@]12CCC(=O)C=C1CC[C@@H]1[C@@H]2[C@@H](O)C[C@@]2(C)[C@H]1CC[C@]2(O)C(=O)CO
T/C (dose: 40.0 mg/kg/injection, schedule: Q04DX003 (ip), vehicle: Klucel (hydroxypropylcellulose) (HPC)): 102 % of control
T/C (dose: 80.0 mg/kg/injection, schedule: Q04DX003 (ip), vehicle: Klucel (hydroxypropylcellulose) (HPC)): 100 % of control
T/C (dose: 160.0 mg/kg/injection, schedule: Q04DX003 (ip), vehicle: Klucel (hydroxypropylcellulose) (HPC)): 102 % of control
T/C (dose: 320.0 mg/kg/injection, schedule: Q04DX003 (ip), vehicle: Klucel (hydroxypropylcellulose) (HPC)): 102 % of control
T/C (dose: 640.0 mg/kg/injection, schedule: Q04DX003 (ip), vehicle: Klucel (hydroxypropylcellulose) (HPC)): 96 % of control

CCC1CN2C(=N1)c1ccccc1-c1cc(Cl)ccc12 (stereo not drawn)
T/C (dose: 2.5 mg/kg/injection, schedule: Q04DX003 (ip), vehicle: saline): 102 % of control
T/C [1]: 107 % of control
T/C (dose: 5.0 mg/kg/injection, schedule: Q04DX003 (ip), vehicle: saline): 111 % of control
T/C [2]: 101 % of control
T/C (dose: 10.0 mg/kg/injection, schedule: Q04DX003 (ip), vehicle: saline): 92 % of control
T/C [3]: 106 % of control
T/C (dose: 40.0 mg/kg/injection, schedule: Q04DX003 (ip), vehicle: saline): 121 % of control
T/C (dose: 40.0 mg/kg/injection, schedule: Q04DX003 (ip), vehicle: suspension in saline): 124 % of control

NNC(=O)c1ccncc1
T/C (dose: 72.0 mg/kg/injection, schedule: Q04DX002 (ip), vehicle: saline): 103 % of control
T/C (dose: 144.0 mg/kg/injection, schedule: Q04DX002 (ip), vehicle: saline): 102 % of control

Nc1ccc(Cl)cc1N
T/C (dose: 12.5 mg/kg/injection, schedule: Q04DX003 (ip), vehicle: saline + Tween-80 + alcohol): 96 % of control
T/C (dose: 12.5 mg/kg/injection, schedule: Q04DX003 (ip), vehicle: saline with Tween-80): 100 % of control
T/C (dose: 25.0 mg/kg/injection, schedule: Q04DX003 (ip), vehicle: saline + Tween-80 + alcohol): 98 % of control
T/C (dose: 25.0 mg/kg/injection, schedule: Q04DX003 (ip), vehicle: saline with Tween-80): 100 % of control
T/C (dose: 50.0 mg/kg/injection, schedule: Q04DX003 (ip), vehicle: saline + Tween-80 + alcohol): 102 % of control
T/C (dose: 50.0 mg/kg/injection, schedule: Q04DX003 (ip), vehicle: saline with Tween-80): 100 % of control
T/C (dose: 100.0 mg/kg/injection, schedule: Q04DX003 (ip), vehicle: saline + Tween-80 + alcohol): 104 % of control
T/C (dose: 100.0 mg/kg/injection, schedule: Q04DX003 (ip), vehicle: saline with Tween-80): 102 % of control
T/C (dose: 200.0 mg/kg/injection, schedule: Q04DX003 (ip), vehicle: saline + Tween-80 + alcohol): 107 % of control
T/C (dose: 200.0 mg/kg/injection, schedule: Q04DX003 (ip), vehicle: saline with Tween-80): 106 % of control
T/C (dose: 400.0 mg/kg/injection, schedule: Q04DX003 (ip), vehicle: saline with Tween-80): 109 % of control

ClC(Cl)=C(Cl)Cl
T/C (dose: 75.0 mg/kg/injection, schedule: Q04DX002 (ip), vehicle: other): 101 % of control
T/C (dose: 150.0 mg/kg/injection, schedule: Q04DX002 (ip), vehicle: other): 93 % of control
T/C (dose: 300.0 mg/kg/injection, schedule: Q04DX002 (ip), vehicle: other): 89 % of control

O=c1c(O)c(-c2ccc(O)c(O)c2)oc2cc(O)cc(O)c12
T/C (dose: 100.0 mg/kg/injection, schedule: Q04DX003 (ip), vehicle: other): 89 % of control
T/C (dose: 800.0 mg/kg/injection, schedule: Q04DX003 (ip), vehicle: other): 87 % of control

CCCCCCCC(=O)OCC(=O)[C@]1(O)Cc2c(O)c3c(c(O)c2[C@@H](OC2CC(N)C(O)C(C)O2)C1)C(=O)c1c(OC)cccc1C3=O (stereo partly drawn)
T/C (dose: 4.5 mg/kg/injection, schedule: Q07DX003 (iv), vehicle: saline): 112 % of control
T/C (dose: 7.0 mg/kg/injection, schedule: Q07DX003 (iv), vehicle: saline): 112 % of control

COc1cc(C[C@H]2c3cc(OC)c(OC)cc3CCN2C)c(Oc2cc3c(cc2OC)-c2c(OC)c(OC)cc4c2[C@H](C3)N(C)CC4)cc1OC
T/C (dose: 25.0 mg/kg/injection, schedule: Q04DX003 (ip), vehicle: saline): 89 % of control
T/C (dose: 50.0 mg/kg/injection, schedule: Q04DX003 (ip), vehicle: saline): 95 % of control
T/C (dose: 100.0 mg/kg/injection, schedule: Q04DX003 (ip), vehicle: saline): 90 % of control
T/C (dose: 200.0 mg/kg/injection, schedule: Q04DX003 (ip), vehicle: saline): 93 % of control
T/C (dose: 400.0 mg/kg/injection, schedule: Q04DX003 (ip), vehicle: saline): 95 % of control

CC(C)CCC[C@@H](C)[C@H]1CC[C@H]2[C@@H]3CC=C4C[C@@H](OC(=O)Cc5ccc(N(CCCl)CCCl)cc5)CC[C@]4(C)[C@H]3CC[C@]12C
T/C (dose: 50.0 mg/kg/injection, schedule: Q04DX002 (ip), vehicle: Klucel (hydroxypropylcellulose) (HPC)): 91 % of control
T/C (dose: 100.0 mg/kg/injection, schedule: Q04DX002 (ip), vehicle: Klucel (hydroxypropylcellulose) (HPC)): 101 % of control
T/C (dose: 200.0 mg/kg/injection, schedule: Q04DX002 (ip), vehicle: Klucel (hydroxypropylcellulose) (HPC)): 101 % of control
T/C (dose: 400.0 mg/kg/injection, schedule: Q04DX002 (ip), vehicle: Klucel (hydroxypropylcellulose) (HPC)): 101 % of control

N[C@@H](Cc1ccc(N(CCCl)CCCl)cc1)C(=O)O
T/C (dose: 1.0 mg/kg/injection, schedule: Q04DX002 (ip), vehicle: suspension in saline): 162 % of control
T/C (dose: 1.25 mg/kg/injection, schedule: Q04DX003 (ip), vehicle: saline): 175 % of control
T/C (dose: 2.0 mg/kg/injection, schedule: Q04DX002 (ip), vehicle: suspension in saline): 231 % of control
T/C [1]: 181 % of control
T/C (dose: 4.0 mg/kg/injection, schedule: Q04DX002 (ip), vehicle: suspension in saline): 249 % of control
T/C [2]: 186 % of control
T/C (dose: 8.0 mg/kg/injection, schedule: Q04DX002 (ip), vehicle: suspension in saline): 277 % of control
T/C [3]: 182 % of control
T/C (dose: 16.0 mg/kg/injection, schedule: Q04DX002 (ip), vehicle: suspension in saline): 226 % of control
T/C (dose: 20.0 mg/kg/injection, schedule: Q04DX003 (ip), vehicle: suspension in saline): 216 % of control

CCc1c(CC(=O)O)c2cc(C)ccc2n1Cc1ccc(Cl)cc1
T/C (dose: 6.25 mg/kg/injection, schedule: Q04DX003 (ip), vehicle: Klucel (hydroxypropylcellulose) (HPC)): 89 % of control
T/C (dose: 12.5 mg/kg/injection, schedule: Q04DX003 (ip), vehicle: Klucel (hydroxypropylcellulose) (HPC)): 95 % of control
T/C (dose: 25.0 mg/kg/injection, schedule: Q04DX003 (ip), vehicle: Klucel (hydroxypropylcellulose) (HPC)): 97 % of control
T/C (dose: 50.0 mg/kg/injection, schedule: Q04DX003 (ip), vehicle: Klucel (hydroxypropylcellulose) (HPC)): 100 % of control
T/C (dose: 100.0 mg/kg/injection, schedule: Q04DX003 (ip), vehicle: Klucel (hydroxypropylcellulose) (HPC)): 111 % of control

CS(=O)(=O)OCCCNCCCOS(C)(=O)=O
T/C (dose: 18.75 mg/kg/injection, schedule: Q04DX003 (ip), vehicle: saline): 194 % of control
T/C (dose: 37.5 mg/kg/injection, schedule: Q04DX003 (ip), vehicle: saline): 241 % of control
T/C (dose: 75.0 mg/kg/injection, schedule: Q04DX003 (ip), vehicle: saline): 338 % of control
T/C (dose: 150.0 mg/kg/injection, schedule: Q04DX003 (ip), vehicle: saline): 338 % of control

COc1ccc2c(c1O)-c1cccc3c1[C@@H](C2)N(CCCl)CC3
T/C (dose: 4.0 mg/kg/injection, schedule: Q04DX002 (ip), vehicle: Klucel (hydroxypropylcellulose) (HPC)): 107 % of control
T/C (dose: 8.0 mg/kg/injection, schedule: Q04DX002 (ip), vehicle: Klucel (hydroxypropylcellulose) (HPC)): 119 % of control
T/C (dose: 16.0 mg/kg/injection, schedule: Q04DX002 (ip), vehicle: Klucel (hydroxypropylcellulose) (HPC)): 108 % of control
T/C (dose: 32.0 mg/kg/injection, schedule: Q04DX002 (ip), vehicle: Klucel (hydroxypropylcellulose) (HPC)): 124 % of control

NC(=O)c1[nH]nc(C2OC(CO)C(O)C2O)c1O (stereo not drawn)
T/C (dose: 2.59 mg/kg/injection, schedule: Q04DX003 (ip), vehicle: saline): 115 % of control
T/C (dose: 4.32 mg/kg/injection, schedule: Q04DX003 (ip), vehicle: saline): 107 % of control
T/C (dose: 7.2 mg/kg/injection, schedule: Q04DX003 (ip), vehicle: saline): 123 % of control
T/C (dose: 12.0 mg/kg/injection, schedule: Q04DX003 (ip), vehicle: saline): 118 % of control
T/C (dose: 20.0 mg/kg/injection, schedule: Q04DX003 (ip), vehicle: saline): 90 % of control

O=P1(NCCCl)OCCCN1CCCl (stereo not drawn)
T/C (dose: 12.5 mg/kg/injection, schedule: Q04DX003 (ip), vehicle: water): 106 % of control
T/C (dose: 25.0 mg/kg/injection, schedule: Q04DX003 (ip), vehicle: water): 113 % of control
T/C (dose: 200.0 mg/kg/injection, schedule: Q04DX003 (ip), vehicle: water): 188 % of control
